Data reported in patent US20240156874A1, “METHODS FOR GENERATING STEM CELL-DERIVED BETA CELLS AND USES THEREOF” (President and Fellows of Harvard College, priority 2014, published 2024).

Key:
SC-β cells [1] = test: In vitro SC-β cell function screen: stimulation index of SC-β cells generated with the agent; type: cell-based, human; conditions: FIG. 1A
Method: Stimulation index=[insulin@20 mM glucose]/[insulin@2 mM glucose]. Relative Stim Index=Stim Index/Stim Index of Control.
FIG. 3 is a schematic illustration depicting an overview of the chemicals used and approach for the initial screen.

beta cells = conditions: Table 1, background knowledge on the screened compounds; cited from earlier work
SC-β cells [2] = test: In vivo function of SC-β cells generated with the agents, after transplantation into mice
From the text: FIG. 4B is a Table quantifying the improvement in stimulation index and mean 30′ insulin post injection illustrated in FIG. 4A.
FIG. 5B is a Table quantifying the improvement in stimulation index and mean 30′ insulin post injection illustrated in FIG. 5A.

AMPK = conditions: cited from earlier work
ALK5 = biological target: T1, ALK5 (Homo sapiens, UniProt P36897); conditions: cited from earlier work
T1 sequence (P36897 34-503): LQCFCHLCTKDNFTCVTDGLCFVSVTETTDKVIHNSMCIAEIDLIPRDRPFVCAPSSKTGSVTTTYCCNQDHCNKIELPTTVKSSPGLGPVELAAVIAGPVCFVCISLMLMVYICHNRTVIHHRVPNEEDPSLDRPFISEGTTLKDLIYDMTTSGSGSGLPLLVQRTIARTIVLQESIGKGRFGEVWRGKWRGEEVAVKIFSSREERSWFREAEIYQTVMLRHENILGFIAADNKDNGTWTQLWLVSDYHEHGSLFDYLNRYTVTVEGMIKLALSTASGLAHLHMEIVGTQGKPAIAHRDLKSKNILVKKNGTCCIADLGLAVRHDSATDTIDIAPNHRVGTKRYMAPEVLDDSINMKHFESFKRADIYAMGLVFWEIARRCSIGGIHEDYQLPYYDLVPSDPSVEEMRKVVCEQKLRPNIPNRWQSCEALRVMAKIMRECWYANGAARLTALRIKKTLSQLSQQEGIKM

KDR (VEGFR-2) = KDR (VEGFR-2) (Homo sapiens, UniProt P35968); conditions: cited from earlier work
PDGFRβ = PDGFRβ (Homo sapiens, UniProt P09619); conditions: cited from earlier work
[3] = tested on: BMP4-induced phosphorylation of Smads 1, 5 and 8; conditions: HEK293 cells; cited from earlier work
TGFRII = TGFRII (Homo sapiens, UniProt P37173); conditions: relative to TGFRI kinase (ALK5); cited from earlier work
[4] = tested on: p38a, p38b, p38d, JNK1, EGFR, MAPKAPK2, MKK6, ERK2, PKC, PKA, PKD, CDC2, and CaMKII; conditions: relative to TGFRI kinase (ALK5); cited from earlier work

TGFRII, sequence (P37173 23-567): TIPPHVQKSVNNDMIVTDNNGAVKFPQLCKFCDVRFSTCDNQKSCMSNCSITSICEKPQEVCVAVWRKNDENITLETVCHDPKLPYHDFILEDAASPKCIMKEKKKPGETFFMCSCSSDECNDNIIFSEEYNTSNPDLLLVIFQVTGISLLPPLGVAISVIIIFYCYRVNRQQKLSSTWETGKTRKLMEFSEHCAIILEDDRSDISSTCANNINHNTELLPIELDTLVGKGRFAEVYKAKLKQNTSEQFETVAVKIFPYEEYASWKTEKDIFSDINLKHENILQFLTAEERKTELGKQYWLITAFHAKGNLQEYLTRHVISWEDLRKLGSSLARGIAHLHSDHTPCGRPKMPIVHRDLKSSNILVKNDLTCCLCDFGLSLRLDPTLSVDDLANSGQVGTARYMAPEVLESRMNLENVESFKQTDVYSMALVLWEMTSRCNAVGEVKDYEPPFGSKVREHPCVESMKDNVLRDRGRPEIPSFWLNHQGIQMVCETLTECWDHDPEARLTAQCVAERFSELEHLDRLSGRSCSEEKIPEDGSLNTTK
KDR (VEGFR-2), sequence (P35968 20-1356, species assumed): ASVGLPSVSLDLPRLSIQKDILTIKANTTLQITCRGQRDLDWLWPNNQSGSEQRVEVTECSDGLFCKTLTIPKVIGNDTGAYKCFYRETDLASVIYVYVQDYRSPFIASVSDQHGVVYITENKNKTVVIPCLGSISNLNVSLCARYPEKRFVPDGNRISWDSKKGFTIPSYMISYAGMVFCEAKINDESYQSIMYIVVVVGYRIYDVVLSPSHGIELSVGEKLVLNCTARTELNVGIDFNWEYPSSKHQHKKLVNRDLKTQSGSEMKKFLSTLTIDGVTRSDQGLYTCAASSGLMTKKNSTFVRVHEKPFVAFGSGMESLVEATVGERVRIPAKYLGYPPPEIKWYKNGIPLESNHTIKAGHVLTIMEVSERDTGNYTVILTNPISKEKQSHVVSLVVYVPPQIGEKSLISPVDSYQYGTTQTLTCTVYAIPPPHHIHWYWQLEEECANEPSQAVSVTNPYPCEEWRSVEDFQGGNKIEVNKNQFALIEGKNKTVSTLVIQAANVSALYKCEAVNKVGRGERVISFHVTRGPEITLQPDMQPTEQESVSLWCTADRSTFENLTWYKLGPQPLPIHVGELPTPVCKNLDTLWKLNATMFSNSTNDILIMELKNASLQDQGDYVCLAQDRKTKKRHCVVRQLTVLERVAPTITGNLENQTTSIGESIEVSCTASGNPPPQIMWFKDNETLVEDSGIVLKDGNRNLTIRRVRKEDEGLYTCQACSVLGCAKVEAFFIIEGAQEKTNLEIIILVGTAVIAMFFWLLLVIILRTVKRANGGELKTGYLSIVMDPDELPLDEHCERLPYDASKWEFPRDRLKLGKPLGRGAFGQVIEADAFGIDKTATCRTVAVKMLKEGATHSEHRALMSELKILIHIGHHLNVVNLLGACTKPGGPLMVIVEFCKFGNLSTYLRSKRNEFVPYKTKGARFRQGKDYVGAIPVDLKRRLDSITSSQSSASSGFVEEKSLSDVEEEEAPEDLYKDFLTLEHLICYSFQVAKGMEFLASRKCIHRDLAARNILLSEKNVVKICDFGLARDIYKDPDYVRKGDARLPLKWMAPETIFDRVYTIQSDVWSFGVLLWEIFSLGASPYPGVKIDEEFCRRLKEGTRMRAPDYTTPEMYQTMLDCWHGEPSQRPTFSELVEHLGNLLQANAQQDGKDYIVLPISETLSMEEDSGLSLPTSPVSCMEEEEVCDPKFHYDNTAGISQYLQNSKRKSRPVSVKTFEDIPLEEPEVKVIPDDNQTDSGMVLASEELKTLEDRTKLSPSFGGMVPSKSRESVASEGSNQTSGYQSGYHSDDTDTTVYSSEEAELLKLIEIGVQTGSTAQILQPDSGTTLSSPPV
PDGFRβ, sequence (P09619 33-1106, species assumed): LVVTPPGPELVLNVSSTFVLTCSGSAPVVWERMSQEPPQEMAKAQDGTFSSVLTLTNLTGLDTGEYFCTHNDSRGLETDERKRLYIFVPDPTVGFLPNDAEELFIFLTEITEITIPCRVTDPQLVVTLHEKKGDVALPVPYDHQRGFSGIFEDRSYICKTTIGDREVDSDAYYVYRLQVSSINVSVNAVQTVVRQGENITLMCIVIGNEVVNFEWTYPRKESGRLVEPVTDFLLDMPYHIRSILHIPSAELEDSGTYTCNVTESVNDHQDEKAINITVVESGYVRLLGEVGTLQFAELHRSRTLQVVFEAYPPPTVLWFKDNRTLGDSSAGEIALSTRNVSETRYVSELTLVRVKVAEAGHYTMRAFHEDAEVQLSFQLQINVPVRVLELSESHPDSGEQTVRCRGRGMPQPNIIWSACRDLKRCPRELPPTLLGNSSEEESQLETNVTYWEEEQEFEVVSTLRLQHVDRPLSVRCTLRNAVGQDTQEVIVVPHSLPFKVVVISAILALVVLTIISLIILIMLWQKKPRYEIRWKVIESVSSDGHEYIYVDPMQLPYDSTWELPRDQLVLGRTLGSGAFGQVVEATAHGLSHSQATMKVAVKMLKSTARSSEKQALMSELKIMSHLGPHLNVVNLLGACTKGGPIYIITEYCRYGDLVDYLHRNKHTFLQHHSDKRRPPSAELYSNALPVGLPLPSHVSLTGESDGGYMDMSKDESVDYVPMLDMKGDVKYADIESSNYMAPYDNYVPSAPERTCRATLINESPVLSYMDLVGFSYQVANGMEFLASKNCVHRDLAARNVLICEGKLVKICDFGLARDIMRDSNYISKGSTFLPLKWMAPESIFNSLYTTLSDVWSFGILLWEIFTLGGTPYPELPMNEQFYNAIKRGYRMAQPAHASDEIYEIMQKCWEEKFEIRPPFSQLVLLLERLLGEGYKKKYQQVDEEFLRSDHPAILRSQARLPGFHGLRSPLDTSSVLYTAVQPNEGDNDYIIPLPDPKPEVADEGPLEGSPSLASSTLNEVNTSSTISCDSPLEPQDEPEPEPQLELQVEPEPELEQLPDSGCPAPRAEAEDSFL

Structure (SMILES) | Stimulation index of resulting SC-β cells relative to control SC-β cells (SC-β cells [1]; concentration not given) | Effect on Beta Cells (beta cells) | also measured
Cc1cccc(-c2nn(C(=S)Nc3ccccc3)cc2-c2ccnc3ccccc23)n1 [A83-01] | worse stimulation indices | Reduces apoptosis of pancreatic beta cells, increases insulin | 
CC(C)Oc1ccc(-c2cnc3c(-c4ccnc5ccccc45)cnn3c2)cc1 [DMH-1, 4-[6-[4-(1-Methylethoxy)phenyl]pyrazolo[1,5-a]pyrimidin-3-yl]-quinoline] |  | Aids differentiation of zebrafish beta cells | Stimulation index of resulting SC-β cells relative to control SC-β cells (SC-β cells [1]; agent 1 μM, Stimulation index=[insulin@20 mM glucose]/[insulin@2 mM glucose]): greater stimulation index; In vivo function of SC-β cells generated using the agent(s) (SC-β cells [2]; 2 weeks post-transplantation into mice, FIG. 4A): improved in vivo function; In vivo function of SC-β cells generated using the agent(s) (SC-β cells [2]; 4 weeks post-transplantation into mice, FIG. 5A): improved in vivo function; Inhibition of AMPK (AMPK): no detectable inhibition; Inhibition of ALK5 (ALK5): no detectable inhibition; Inhibition of KDR (VEGFR-2) (KDR (VEGFR-2)): no detectable inhibition; Inhibition of PDGFRβ receptors (PDGFRβ): no detectable inhibition; Effect on BMP4-induced phosphorylation of Smads 1, 5 and 8 [3]: block BMP4-induced phosphorylation of Smads 1, 5 and 8
Oc1ccc(-c2nc(-c3ccc(F)cc3)c(-c3ccncc3)[nH]2)cc1 [SB202190] | worse stimulation indices | Reduced apoptosis in beta cells | 
C[S+]([O-])c1ccc(-c2nc(-c3ccc(F)cc3)c(-c3ccncc3)[nH]2)cc1 (stereo not drawn) [SB203580] | worse stimulation indices | Reduced apoptosis in beta cells | 
NC(=O)c1ccc(-c2nc(-c3ccc4c(c3)OCO4)c(-c3ccccn3)[nH]2)cc1 [SB431542, 4-[4-(1,3-benzodioxol-5-yl)-5-(2-pyridinyl)-111-imidazol-2-yl]benzamide] |  | Reduces apoptosis of pancreatic beta cells, increases insulin | 
Fc1ccc(Cl)cc1-c1nc(Nc2ccncc2)c2nccnc2n1 [SD208] |  | Helps maintain growth of human pancreatic cancer cells | Specificity against TGFRII (TGFRII): > 100 fold; Specificity over members of a panel of related protein kinases [4]: at least 17 fold
N#CC(=C(/N)Sc1ccccc1N)/C(C#N)=C(\N)Sc1ccccc1N [U0126] | worse stimulation indices | Reduced apoptosis in beta cells | 
